Laboratory results published in patent US12599136B2, “Substituted isophthalic acid diamides and their use as herbicides” (Bayer Aktiengesellschaft, priority 2020, dated 2026).

Legend:
Type in all cases: in vivo
Viola tricolor [1] = assay: Pre-emergence herbicidal action against VIOTR
Summary of the method: (§1)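 Herbicidal effect was assessed 3 weeks after treatment by visual comparison with untreated controls, 100% denoting dead plants. Aqueous WP or EC preparations had been applied at 600 to 800 l/ha with 0.2% wetting agent to the soil covering freshly sown seeds.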

Matricaria inodora [2] = assay: Pre-emergence herbicidal action against MATIN; settings: visual score after 3 weeks vs untreated controls
Summary of the method: as §1

Lolium rigidum [3] = assay: Pre-emergence herbicidal action against LOLRI
Summary of the method: as §1

Veronica persica [4] = assay: Pre-emergence herbicidal action against VERPE
Summary of the method: as §1

Abutilon theophrasti [5] = assay: Pre-emergence herbicidal action against ABUTH; settings: Dosage column 320 g/ha (heading prints 3200 g/ha); visual score after 3 weeks vs untreated controls
Summary of the method: as §1

Stellaria media [6] = assay: Pre-emergence herbicidal action against STEME
Summary of the method: as §1

Amaranthus retroflexus [7] = assay: Post-emergence herbicidal action against AMARE; settings: visual assessment about 3 weeks after treatment
Summary of the method: (§2)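 Post-emergence greenhouse test; one-leaf stage, 2–3 wk post-sowing, sandy loam. Foliar spray of WP/EC in water, 600–800 l/ha, +0.2% wetting agent. Visual % action at ~3 wk vs untreated (100% = plants dead).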

Pharbitis purpurea [8] = assay: Pre-emergence herbicidal action against PHBPU; settings: visual score after 3 weeks vs untreated controls
Summary of the method: as §1

Alopecurus myosuroides [9] = assay: Post-emergence herbicidal action against ALOMY
Summary of the method: as §2

Polygonum convolvulus [10] = assay: Pre-emergence herbicidal action against POLCO
Summary of the method: as §1

Polygonum convolvulus [11] = assay: Post-emergence herbicidal action against POLCO; settings: 80 g/ha, visual assessment about 3 weeks after treatment
Summary of the method: as §2

Lolium rigidum [12] = assay: Post-emergence herbicidal action against LOLRI
Summary of the method: as §2

Pharbitis purpurea [13] = assay: Post-emergence herbicidal action against PHBPU; settings: visual assessment about 3 weeks after treatment
Summary of the method: as §2

Amaranthus retroflexus [14] = assay: Pre-emergence herbicidal action against AMARE; settings: visual score after 3 weeks vs untreated controls
Summary of the method: as §1

Veronica persica [15] = assay: Post-emergence herbicidal action against VERPE; settings: visual assessment about 3 weeks after treatment
Summary of the method: as §2

Avena fatua [16] = assay: Post-emergence herbicidal action against AVEFA; settings: visual assessment about 3 weeks after treatment
Summary of the method: as §2

Hordeum murinum [17] = assay: Post-emergence herbicidal action against HORMU
Summary of the method: as §2

Cyperus esculentus [18] = assay: Pre-emergence herbicidal action against CYPES; settings: visual score after 3 weeks vs untreated controls
Summary of the method: as §1

Viola tricolor [19] = assay: Post-emergence herbicidal action against VIOTR
Summary of the method: as §2

Setaria viridis [20] = assay: Post-emergence herbicidal action against SETVI; settings: visual assessment about 3 weeks after treatment
Summary of the method: as §2

Alopecurus myosuroides [21] = assay: Pre-emergence herbicidal action against ALOMY; settings: visual score after 3 weeks vs untreated controls
Summary of the method: as §1

Abutilon theophrasti [22] = assay: Post-emergence herbicidal action against ABUTH
Summary of the method: as §2

Matricaria inodora [23] = assay: Post-emergence herbicidal action against MATIN; settings: visual assessment about 3 weeks after treatment
Summary of the method: as §2

Stellaria media [24] = assay: Post-emergence herbicidal action against STEME; settings: visual assessment about 3 weeks after treatment
Summary of the method: as §2

Echinochloa crus-galli [25] = assay: Pre-emergence herbicidal action against ECHCG; settings: visual score after 3 weeks vs untreated controls
Summary of the method: as §1

Setaria viridis [26] = assay: Pre-emergence herbicidal action against SETVI
Summary of the method: as §1

Hordeum murinum [27] = assay: Pre-emergence herbicidal action against HORMU; settings: visual score after 3 weeks vs untreated controls
Summary of the method: as §1

Avena fatua [28] = assay: Pre-emergence herbicidal action against AVEFA; settings: visual score after 3 weeks vs untreated controls
Summary of the method: as §1

Echinochloa crus-galli [29] = assay: Post-emergence herbicidal action against ECHCG; settings: visual assessment about 3 weeks after treatment
Summary of the method: as §2

Cyperus esculentus [30] = assay: Post-emergence herbicidal action against CYPES; settings: visual assessment about 3 weeks after treatment
Summary of the method: as §2

Compound: CCN(C)C(=O)c1c(C(F)(F)F)ccc(C(=O)Nc2nnnn2C)c1Cl [Example 1-124]
- Pre-emergence action against VIOTR (Viola tricolor [1]; 80 g/ha): 100%
- Pre-emergence action against VIOTR (Viola tricolor [1]; 320 g/ha): 100%
- Pre-emergence action against MATIN (Matricaria inodora [2]; 20 g/ha): 80%
- Pre-emergence action against MATIN (Matricaria inodora [2]; 80 g/ha): 90%
- Pre-emergence action against MATIN (Matricaria inodora [2]; 320 g/ha): 100%
- Pre-emergence action against LOLRI (Lolium rigidum [3]; 80 g/ha): 80%
- Pre-emergence action against LOLRI (Lolium rigidum [3]; 320 g/ha): 100%
- Pre-emergence action against VERPE (Veronica persica [4]; 80 g/ha): 80%
- Pre-emergence action against VERPE (Veronica persica [4]; 320 g/ha): 100%
- Pre-emergence action against ABUTH (Abutilon theophrasti [5]): 90%
- Pre-emergence action against STEME (Stellaria media [6]; 20 g/ha): 90%
- Pre-emergence action against STEME (Stellaria media [6]; 80 g/ha): 90%
- Pre-emergence action against STEME (Stellaria media [6]; 320 g/ha): 90%
- Post-emergence action against AMARE in % (Amaranthus retroflexus [7]; 5 g/ha): 100%
- Post-emergence action against AMARE in % (Amaranthus retroflexus [7]; 20 g/ha): 100%
- Post-emergence action against AMARE in % (Amaranthus retroflexus [7]; 80 g/ha): 100%
- Pre-emergence action against PHBPU (Pharbitis purpurea [8]; 80 g/ha): 80%
- Pre-emergence action against PHBPU (Pharbitis purpurea [8]; 320 g/ha): 90%
- Post-emergence action against ALOMY (Alopecurus myosuroides [9]; 5 g/ha): 90%
- Post-emergence action against ALOMY (Alopecurus myosuroides [9]; 20 g/ha): 100%
- Post-emergence action against ALOMY (Alopecurus myosuroides [9]; 80 g/ha): 100%
- Pre-emergence action against POLCO (Polygonum convolvulus [10]; 80 g/ha): 80%
- Pre-emergence action against POLCO (Polygonum convolvulus [10]; 320 g/ha): 80%
- Post-emergence action against POLCO in % (Polygonum convolvulus [11]): 90%
- Post-emergence action against LOLRI in % (Lolium rigidum [12]; 20 g/ha): 90%
- Post-emergence action against LOLRI in % (Lolium rigidum [12]; 80 g/ha): 100%
- Post-emergence action against PHBPU in % (Pharbitis purpurea [13]; 5 g/ha): 80%
- Post-emergence action against PHBPU in % (Pharbitis purpurea [13]; 20 g/ha): 90%
- Post-emergence action against PHBPU in % (Pharbitis purpurea [13]; 80 g/ha): 90%
- Pre-emergence action against AMARE (Amaranthus retroflexus [14]; 20 g/ha): 90%
- Pre-emergence action against AMARE (Amaranthus retroflexus [14]; 80 g/ha): 90%
- Pre-emergence action against AMARE (Amaranthus retroflexus [14]; 320 g/ha): 100%
- Post-emergence action against VERPE in % (Veronica persica [15]; 5 g/ha): 80%
- Post-emergence action against VERPE in % (Veronica persica [15]; 20 g/ha): 80%
- Post-emergence action against VERPE in % (Veronica persica [15]; 80 g/ha): 100%
- Post-emergence action against AVEFA in % (Avena fatua [16]; 5 g/ha): 80%
- Post-emergence action against AVEFA in % (Avena fatua [16]; 20 g/ha): 100%
- Post-emergence action against AVEFA in % (Avena fatua [16]; 80 g/ha): 100%
- Post-emergence action against HORMU in % (Hordeum murinum [17]; 5 g/ha): 80%
- Post-emergence action against HORMU in % (Hordeum murinum [17]; 20 g/ha): 90%
- Post-emergence action against HORMU in % (Hordeum murinum [17]; 80 g/ha): 100%
- Pre-emergence action against CYPES (Cyperus esculentus [18]; 80 g/ha): 80%
- Pre-emergence action against CYPES (Cyperus esculentus [18]; 320 g/ha): 90%
- Post-emergence action against VIOTR in % (Viola tricolor [19]; 5 g/ha): 100%
- Post-emergence action against VIOTR in % (Viola tricolor [19]; 20 g/ha): 100%
- Post-emergence action against VIOTR in % (Viola tricolor [19]; 80 g/ha): 100%
- Post-emergence action against SETVI in % (Setaria viridis [20]; 5 g/ha): 100%
- Post-emergence action against SETVI in % (Setaria viridis [20]; 20 g/ha): 100%
- Post-emergence action against SETVI in % (Setaria viridis [20]; 80 g/ha): 100%
- Pre-emergence action against ALOMY (Alopecurus myosuroides [21]; 20 g/ha): 80%
- Pre-emergence action against ALOMY (Alopecurus myosuroides [21]; 80 g/ha): 90%
- Pre-emergence action against ALOMY (Alopecurus myosuroides [21]; 320 g/ha): 100%
- Post-emergence action against ABUTH (Abutilon theophrasti [22]; 5 g/ha): 100%
- Post-emergence action against ABUTH (Abutilon theophrasti [22]; 20 g/ha): 100%
- Post-emergence action against ABUTH (Abutilon theophrasti [22]; 80 g/ha): 100%
- Post-emergence action against MATIN in % (Matricaria inodora [23]; 20 g/ha): 100%
- Post-emergence action against MATIN in % (Matricaria inodora [23]; 80 g/ha): 100%
- Post-emergence action against STEME in % (Stellaria media [24]; 5 g/ha): 100%
- Post-emergence action against STEME in % (Stellaria media [24]; 20 g/ha): 100%
- Post-emergence action against STEME in % (Stellaria media [24]; 80 g/ha): 100%
- Pre-emergence action against ECHCG (Echinochloa crus-galli [25]; 20 g/ha): 80%
- Pre-emergence action against ECHCG (Echinochloa crus-galli [25]; 80 g/ha): 100%
- Pre-emergence action against ECHCG (Echinochloa crus-galli [25]; 320 g/ha): 100%
- Pre-emergence action against SETVI (Setaria viridis [26]; 20 g/ha): 90%
- Pre-emergence action against SETVI (Setaria viridis [26]; 80 g/ha): 100%
- Pre-emergence action against SETVI (Setaria viridis [26]; 320 g/ha): 100%
- Pre-emergence action against HORMU (Hordeum murinum [27]; 80 g/ha): 90%
- Pre-emergence action against HORMU (Hordeum murinum [27]; 320 g/ha): 90%
- Pre-emergence action against AVEFA (Avena fatua [28]; 80 g/ha): 80%
- Pre-emergence action against AVEFA (Avena fatua [28]; 320 g/ha): 100%
- Post-emergence action against ECHCG in % (Echinochloa crus-galli [29]; 5 g/ha): 100%
- Post-emergence action against ECHCG in % (Echinochloa crus-galli [29]; 20 g/ha): 100%
- Post-emergence action against ECHCG in % (Echinochloa crus-galli [29]; 80 g/ha): 100%
- Post-emergence action against CYPES in % (Cyperus esculentus [30]; 20 g/ha): 80%
- Post-emergence action against CYPES in % (Cyperus esculentus [30]; 80 g/ha): 80%
